From patent US9808441B2, “Dietary supplement containing alkaline electrolyte buffers” (priority 1999, dated 2017) come the findings set out here.

A value given as a limit tells only on which side of the number the result lay.

The nature of the first series: pH of dietary/therapeutic supplements, alkaline minerals and supplement compositions. The format is physicochemical. Conditions: dietary or therapeutic supplement prior to combination with alkaline minerals (table). The source says: It is noted that wherein pH is referred to for a dry or non-liquid material, it means where the material is mixed with a liquid, such as in the body of a user.
When an individual takes any one of these supplements with the meal, the body begins the digestion process of the supplement and the meal and the body begins to try to eliminate resulting waste due to needed raise in pH and to buffer the system. The body will utilize any buffer that can be found within the food, supplement, and after that will begin to draw the alkaline minerals from within the system itself.
With `O=C1O[C@H]([C@@H](O)CO)C(O)=C1O` [Ascorbic Acid], the pH was 3.23.
The same measure, in the same setting: for `N[C@H]1C(O)O[C@H](CO)[C@@H](O)[C@@H]1O` (stereo partly drawn) [Glucosamine] the value was 5.5; for `O=C(O)c1cccnc1` [Niacin], 3.4; for `[Zn]` [Zinc], 3.5.
For the compound Vitamin E, the pH is reported as 6.1.

The series is the same for the next values; noted with them: lower value, 'and up depending upon the form' of the mineral.
For `[Ca+2]` [calcium], the “pH of alkaline mineral” value is on record as not below 8.28.
Regarding `[Mg+2]` [magnesium], the “pH of alkaline mineral” value is on record as not below 7.20.
In the case of `[K+]` [potassium], the “pH of alkaline mineral” value is recorded as not below 9.69.

Still in this series, the particulars now being: supplement or ingredient alone, without alkaline electrolytes (text; typical/normal value).
Take `O=C1O[C@H]([C@@H](O)CO)C(O)=C1O` [Ascorbic Acid]: the pH result is on record as “about 3.23”.
